# Source: US20210386757A1, “Methods of Treating Menopausal Symptoms Using Low Dose Progesterone” (priority 2018, published 2021)
# What was measured:
# [1] = tested on: symptoms associated with menopause transition; assay: Observational study of low dose oral micronized progesterone in menopause transition, Menopause Rating Scale (MRS); assay type: in vivo, women
# Description: Women between the ages of 40 to 55 years of age who were experiencing symptoms consistent with menopause transition were offered a trial of a low dose progesterone to alleviate their symptoms. The primary complaint for inclusion in the study was alterations in mood defined as depressive mood, irritability, or anxiety on the Menopause Rating Scale (MRS). A score of 2-4 on these mood changes was required to be included in the study. One additional symptom (sleep problems, hot flushes, physical and mental exhaustion) on the MRS was required, with a minimum score of 1, to be included. Patients with a history of breast cancer, actively trying to conceive, or in menopause were excluded from the study. Menopause was defined as no menses for greater than one year or surgical removal of the ovaries. Patients were consented for a trial of oral micronized progesterone at 25 mg twice a day. Response to treatment was evaluated in the office after 3 months of treatment. Data was collected over a one-year time period, September 2018-September 2019. The menopause transition time, referred to as perimenopause, includes both the early and late perimenopausal group. Patient selection was classified according to STRAW (Stages of Reproductive Aging Workshop) classification. Late perimenopause was defined as menstruation in the previous/last 2-12 months, but not in the previous/last 2 months. Early perimenopause was defined as increasing irregularity of menses without skipping periods (7 days difference) from the beginning of a given cycle to the next. The Menopause Rating Scale was utilized to quantify qualitative symptoms associated with the menopause transition. Given treatment differences in the symptoms that impact person transitioning through menopause, attention was focused on 6 components of the MRS; hot flushes, sleep problems, depressive mood, irritability, anxiety, and physical/mental exhaustion. The scoring scheme increases point by point with increasing severity of subjectively perceived symptoms in each of those 6 items (severity 0 [no complaints] . . . 4 scoring points [very severe symptoms]). The respondent rated their personal symptoms on a 0 to 4 scale for each item. The MRS was chosen as a result of being a reliable measure of quality of life in aging women of various regions over time.
# [2] = tested on: symptoms of the menopause transition state; assay: Trial of progesterone for treating symptoms of the menopause transition state (Example 1); assay type: in vivo, women; settings: greater than 100 patients, low dose e.g. 25 mg twice a day
# Protocol: It is apparent based on initial observations that supplementing with a low dose progesterone alleviates symptoms in women transitioning into menopause. The question then becomes, if a person is experiencing symptoms of estrogen dominance does failing to treat estrogen dominance result in a greater risk of breast cancer, uterine cancer, and cardiovascular disease. Supplementing with progesterone, e.g., at 25 mg twice a day can improve many symptoms associated with menopause transition. […] Micronized progesterone (25 mg) Dosing regimens of interest: One tablet bid (twice a day); Two tablets qhs (each night at bedtime); One tablet qam (every morning), two tablets qhs (each night at bedtime).
smiles,measurement,setting,value
"CC(=O)[C@H]1CC[C@H]2[C@@H]3CCC4=CC(=O)CC[C@]4(C)[C@H]3CC[C@]12C [micronized progesterone, progesterone]",response of patients who altered the dosing regimen,"[1]; once a day or two tablets (50 mg) at night, 14 patients excluded from the study",noted benefits and chose to continue the medication
same,"patients with at least a one-point improvement in MRS symptom score, physical and mental exhaustion","[1]; oral 25 mg twice a day, 3 months, 12 of 19 patients who noted physical and mental exhaustion",63%
same,"patients with at least a one-point improvement in MRS symptom score, sleep problems","[1]; oral 25 mg twice a day, 3 months, 27 of 32 patients who noted sleep problems",84%
same,"patients with at least a one-point improvement in MRS symptom score, hot flushes","[1]; oral 25 mg twice a day, 3 months, 44 of 48 patients who noted hot flushes",92%
same,patients who did not report side effects to the medication,"[1]; oral 25 mg twice a day, 3 months, of 55 patients evaluated",54 patients
same,patients reporting MRS symptom score of 0,"[1]; oral 25 mg twice a day, at 3 months, 44 of 55 patients",80%
same,"discontinuation because of a diagnosis of breast cancer, thromboembolic event, or abnormal uterine bleeding","[1]; oral 25 mg twice a day, during the study period",No patient discontinued the medication
same,patients with at least a two-point improvement in MRS symptom score related to mood changes,"[1]; oral 25 mg twice a day, evaluated at 3 months, 52 of 55 patients",94.5%
same,discontinuation because of an adverse effect,"[1]; oral 25 mg twice a day, prior to the 3 month follow up",One patient discontinued the medication prior to the 3 month follow up secondary to worsening headaches
same,"subsequent diagnosis of breast cancer, uterine cancer, or a cardiovascular event",[2],"not one patient was subsequently diagnosed with breast cancer, uterine cancer, or a cardiovascular event"
